US20250213555A1, “SUBSTITUTED TETRAHYDROFURAN ANALOGS AS MODULATORS OF SODIUM CHANNELS” (VERTEX PHARMACEUTICALS INCORPORATED, priority 2021, published 2025)

Biological target: human Nav 1.8 (Homo sapiens, UniProt Q9Y5Y9)
Assay: E-VIPR assay detecting and measuring Nav inhibition properties
Format: cell-based
Conditions: HEK cells expressing a truncated form of human Nav 1.8; compound numbers without "*" (not marked as run in the presence of human serum); read-out: measured IC50 value in the E-VIPR Assay
Summary of the method: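 Nav inhibition was read by E-VIPR: cells were electrically stimulated while coumarin/oxonol FRET emissions were recorded. Cells were HEK expressing a truncated human Nav 1.8 and co-transduced with KIR2.1, and were assayed in 25% final human serum.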

Chain of human Nav 1.8 (Q9Y5Y9 126-399 limits assumed): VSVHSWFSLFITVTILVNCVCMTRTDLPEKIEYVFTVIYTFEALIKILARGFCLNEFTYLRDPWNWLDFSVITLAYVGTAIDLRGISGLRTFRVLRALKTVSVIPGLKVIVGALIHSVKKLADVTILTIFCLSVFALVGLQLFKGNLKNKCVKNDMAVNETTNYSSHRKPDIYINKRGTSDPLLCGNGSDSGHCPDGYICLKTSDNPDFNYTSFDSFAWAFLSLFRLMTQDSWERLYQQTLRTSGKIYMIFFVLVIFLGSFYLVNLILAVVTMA
Chain of human Nav 1.8 (Q9Y5Y9 660-890 limits assumed): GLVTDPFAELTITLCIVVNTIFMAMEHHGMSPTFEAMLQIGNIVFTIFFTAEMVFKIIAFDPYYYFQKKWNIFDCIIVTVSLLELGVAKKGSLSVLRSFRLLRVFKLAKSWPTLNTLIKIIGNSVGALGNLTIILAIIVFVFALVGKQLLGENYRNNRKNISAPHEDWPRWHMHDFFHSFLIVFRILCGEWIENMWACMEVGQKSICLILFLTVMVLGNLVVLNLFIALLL
Chain of human Nav 1.8 (Q9Y5Y9 1148-1722 limits assumed): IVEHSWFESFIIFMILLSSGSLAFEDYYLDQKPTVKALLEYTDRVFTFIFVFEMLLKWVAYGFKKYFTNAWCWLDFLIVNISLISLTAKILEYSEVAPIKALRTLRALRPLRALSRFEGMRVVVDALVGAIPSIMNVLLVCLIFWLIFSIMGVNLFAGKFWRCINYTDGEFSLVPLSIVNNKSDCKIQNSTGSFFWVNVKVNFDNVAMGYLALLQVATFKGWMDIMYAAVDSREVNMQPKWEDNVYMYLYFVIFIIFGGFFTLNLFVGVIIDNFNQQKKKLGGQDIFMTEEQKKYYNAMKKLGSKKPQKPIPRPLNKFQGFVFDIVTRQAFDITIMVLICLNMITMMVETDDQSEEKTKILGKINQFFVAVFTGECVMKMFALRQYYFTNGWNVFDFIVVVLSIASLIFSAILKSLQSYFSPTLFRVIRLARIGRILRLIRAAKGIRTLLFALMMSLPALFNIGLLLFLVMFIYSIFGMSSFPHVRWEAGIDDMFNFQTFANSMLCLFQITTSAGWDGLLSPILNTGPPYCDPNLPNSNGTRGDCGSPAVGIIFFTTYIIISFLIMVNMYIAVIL

IC50 [nM] | SMILES
10 to 100 | C=C(/C=C/Oc1c([C@H]2[C@H](C(=O)Nc3ccnc(C(N)=O)c3)O[C@@](C)(C(F)(F)F)[C@H]2C)ccc(F)c1F)C(F)(F)F [Compound 172, 4-((2R,3S,4S,5R)-3-(3,4-difluoro-2-(((E)-3-(trifluoromethyl)buta-1,3-dien-1-yl)oxy)phenyl)-4,5-dimethyl-5-(trifluoromethyl)tetrahydrofuran-2-carboxamido)picolinamide]
< 10 | C[C@H]1[C@@H](c2ccc(F)c(F)c2OC2CCC(O)C2)[C@H](C(=O)Nc2ccnc(C(N)=O)c2)O[C@@]1(C)C(F)(F)F (stereo partly drawn) [Compound 175, 4-((2R,3S,4S,5R)-3-(3,4-difluoro-2-((3-hydroxycyclopentyl)oxy)phenyl)-4,5-dimethyl-5-(trifluoromethyl)tetrahydrofuran-2-carboxamido)picolinamide]
≥ 1000 | C[C@H]1[C@@H](c2cc(Br)c(F)c(F)c2O)[C@H](C(=O)Nc2ccnc(C(N)=O)c2)O[C@@]1(C)C(F)(F)F [Compound 176, 4-((2R,3S,4S,5R)-3-(5-bromo-3,4-difluoro-2-hydroxyphenyl)-4,5-dimethyl-5-(trifluoromethyl)tetrahydrofuran-2-carboxamido)picolinamide]
< 10 | COc1c([C@H]2[C@H](C(=O)Nc3ccnc(C(N)=O)c3)O[C@@](C)(C(F)(F)F)[C@H]2C)cc(OCc2ccccc2)c(F)c1F [Compound 177, 4-((2R,3S,4S,5R)-3-(5-(benzyloxy)-3,4-difluoro-2-methoxyphenyl)-4,5-dimethyl-5-(trifluoromethyl)tetrahydrofuran-2-carboxamido) picolinamide]
< 10 | COc1c([C@H]2[C@H](C(=O)Nc3ccnc(C(N)=O)c3)O[C@@](C)(C(F)(F)F)[C@H]2C)cc(O)c(F)c1F [Compound 178, 4-((2R,3S,4S,5R)-3-(3,4-difluoro-5-hydroxy-2-methoxyphenyl)-4,5-dimethyl-5-(trifluoromethyl)tetrahydrofuran-2-carboxamido) picolinamide]
10 to 100 | Cc1cnc(C(N)=O)cc1NC(=O)[C@@H]1O[C@@](C)(C(F)(F)F)[C@@H](C)[C@H]1c1ccc(F)c(F)c1OCCN1CC2(COC2)C1 [Compound 181, 4-((2R,3S,4S,5R)-3-(2-(2-(2-oxa-6-azaspiro[3.3]heptan-6-yl)ethoxy)-3,4-difluorophenyl)-4,5-dimethyl-5-(trifluoromethyl)tetrahydrofuran-2-carboxamido)-5-methylpicolinamide]
< 10 | C/C(COc1c([C@H]2[C@H](C(=O)Nc3ccnc(C(N)=O)c3)O[C@@](C)(C(F)(F)F)[C@H]2C)ccc(F)c1F)=N\O [Compound 185, 4-((2R,3S,4S,5R)-3-(3,4-difluoro-2-((E)-2-(hydroxyimino)propoxy)phenyl)-4,5-dimethyl-5-(trifluoromethyl)tetrahydrofuran-2-carboxamido)picolinamide]
< 10 | C[C@H]1[C@@H](c2ccc(F)c(F)c2OCC(=NO)C2(F)CC2)[C@H](C(=O)Nc2ccnc(C(N)=O)c2)O[C@@]1(C)C(F)(F)F [Compound 190, 4-((2R,3S,4S,5R)-3-(3,4-difluoro-2-(2-(1-fluorocyclopropyl)-2-(hydroxyimino)ethoxy)phenyl)-4,5-dimethyl-5-(trifluoromethyl)tetrahydrofuran-2-carboxamido)picolinamide]
< 10 | C[C@H]1[C@@H](c2ccc(F)c(F)c2OCC(=NO)C2CCC2)[C@H](C(=O)Nc2ccnc(C(N)=O)c2)O[C@@]1(C)C(F)(F)F [Compound 191, 4-((2R,3S,4S,5R)-3-(2-(2-cyclobutyl-2-(hydroxyimino)ethoxy)-3,4-difluorophenyl)-4,5-dimethyl-5-(trifluoromethyl)tetrahydrofuran-2-carboxamido)picolinamide]
< 10 | CON=C(C)COc1c([C@H]2[C@H](C(=O)Nc3ccnc(C(N)=O)c3)O[C@@](C)(C(F)(F)F)[C@H]2C)ccc(F)c1F [Compound 193, 4-((2R,3S,4S,5R)-3-(3,4-difluoro-2-(2-(methoxyimino)propoxy)phenyl)-4,5-dimethyl-5-(trifluoromethyl)tetrahydrofuran-2-carboxamido)picolinamide]
< 10 | CC(COc1c([C@H]2[C@H](C(=O)Nc3ccnc(C(N)=O)c3)O[C@@](C)(C(F)(F)F)[C@H]2C)cccc1C(F)(F)F)=NO [Compound 196, 4-((2R,3S,4S,5R)-3-(2-(2-(hydroxyimino)propoxy)-3-(trifluoromethyl)phenyl)-4,5-dimethyl-5-(trifluoromethyl)tetrahydrofuran-2-carboxamido)picolinamide]
10 to 100 | CC1C(c2ccc(F)c(F)c2OCC2CC(C)(O)C2)C(C(=O)Nc2ccnc(C(N)=O)c2)OC1(C)C(F)(F)F [Compound 199, rel-4-((2R*,3S*,4S*,5R*)-3-(3,4-difluoro-2-(((1r,3S)-3-hydroxy-3-methylcyclobutyl)methoxy)phenyl)-4,5-dimethyl-5-(trifluoromethyl)tetrahydrofuran-2-carboxamido)picolinamide]
10 to 100 | CNC(=O)c1cc(NC(=O)[C@@H]2O[C@@](C)(C(F)(F)F)[C@@H](C)[C@H]2c2ccc(F)c(F)c2O[C@H]2C[C@@H](O)C2)ccn1 [Compound 201]
< 10 | C[C@H]1[C@@H](c2ccc(F)c(F)c2O[C@H]2C[C@@H](O)C2)[C@H](C(=O)Nc2ccc(F)c(C(N)=O)c2)O[C@@]1(C)C(F)(F)F [Compound 202]
10 to 100 | Cc1cnc(C(N)=O)cc1NC(=O)C1OC(C)(C(F)(F)F)C(C)C1c1ccc(F)c(F)c1OC1CC(O)C1 (centres unmarked) [Compound 203]
100 to 1000 | C[C@H]1[C@@H](c2ccc(F)c(F)c2OC2CC3(CC(O)C3)C2)[C@H](C(=O)Nc2ccnc(C(N)=O)c2)O[C@@]1(C)C(F)(F)F (stereo partly drawn) [Compound 204, 4-((2R,3S,4S,5R)-3-(3,4-difluoro-2-((6-hydroxyspiro[3.3]heptan-2-yl)oxy)phenyl)-4,5-dimethyl-5-(trifluoromethyl)tetrahydrofuran-2-carboxamido)picolinamide]
10 to 100 | COc1c([C@H]2[C@H](C(=O)Nc3ccnc(C(N)=O)c3)O[C@@](C)(C(F)(F)F)[C@H]2C)ccc(O)c1F [Compound 206, 4-((2R,3S,4S,5R)-3-(3-fluoro-4-hydroxy-2-methoxyphenyl)-4,5-dimethyl-5-(trifluoromethyl)tetrahydrofuran-2-carboxamido) picolinamide]
100 to 1000 | C[C@H]1[C@@H](c2ccc(C(F)F)nc2OCCO)[C@H](C(=O)Nc2ccnc(C(N)=O)c2)O[C@@]1(C)C(F)(F)F [Compound 208, 4-((2R,3S,4S,5R)-3-(6-(difluoromethyl)-2-(2-hydroxyethoxy)pyridin-3-yl)-4,5-dimethyl-5-(trifluoromethyl)tetrahydrofuran-2-carboxamido) picolinamide]

SMILES | IC50 [nM]
C[C@H]1[C@@H](c2ccc(F)c(F)c2OC2CC(F)(F)C2)[C@H](C(=O)Nc2ccnc(C(N)=O)c2)O[C@@]1(C)C(F)(F)F [Compound 173, 4-((2R,3S,4S,5R)-3-(2-(3,3-difluorocyclobutoxy)-3,4-difluorophenyl)-4,5-dimethyl-5-(trifluoromethyl)tetrahydrofuran-2-carboxamido)picolinamide] | < 10
C[C@H]1[C@@H](c2ccc(F)c(F)c2OC2CC(C)(O)C2)[C@H](C(=O)Nc2ccnc(C(N)=O)c2)O[C@@]1(C)C(F)(F)F (stereo partly drawn) [Compound 174, 4-((2R,3S,4S,5R)-3-(3,4-difluoro-2-(3-hydroxy-3-methylcyclobutoxy)phenyl)-4,5-dimethyl-5-(trifluoromethyl)tetrahydrofuran-2-carboxamido)picolinamide] | < 10
COc1c([C@H]2[C@H](C(=O)Nc3ccnc(C(N)=O)c3)O[C@@](C)(C(F)(F)F)[C@H]2C)cc(OC2CC(F)(F)C2)c(F)c1F [Compound 179, 4-((2R,3S,4S,5R)-3-(5-(3,3-difluorocyclobutoxy)-3,4-difluoro-2-methoxyphenyl)-4,5-dimethyl-5-(trifluoromethyl)tetrahydrofuran-2-carboxamido) picolinamide] | 100 to 1000
C[C@H]1[C@@H](c2ccc(F)c(F)c2OCC(=NO)C2CC2)[C@H](C(=O)Nc2ccnc(C(N)=O)c2)O[C@@]1(C)C(F)(F)F [Compound 182, 4-((2R,3S,4S,5R)-3-(2-(2-cyclopropyl-2-(hydroxyimino)ethoxy)-3,4-difluorophenyl)-4,5-dimethyl-5-(trifluoromethyl)tetrahydrofuran-2-carboxamido) picolinamide] | < 10
CC(C)C(COc1c([C@H]2[C@H](C(=O)Nc3ccnc(C(N)=O)c3)O[C@@](C)(C(F)(F)F)[C@H]2C)ccc(F)c1F)=NO [Compound 186, 4-((2R,3S,4S,5R)-3-(3,4-difluoro-2-(2-(hydroxyimino)-3-methylbutoxy)phenyl)-4,5-dimethyl-5-(trifluoromethyl)tetrahydrofuran-2-carboxamido)picolinamide] | < 10
C[C@H]1[C@@H](c2ccc(F)c(F)c2OC/C(=N\O)C(C)(C)C)[C@H](C(=O)Nc2ccnc(C(N)=O)c2)O[C@@]1(C)C(F)(F)F [Compound 189, 4-((2R,3S,4S,5R)-3-(3,4-difluoro-2-((Z)-2-(hydroxyimino)-3,3-dimethylbutoxy)phenyl)-4,5-dimethyl-5-(trifluoromethyl)tetrahydrofuran-2-carboxamido)picolinamide] | < 10
C[C@H]1[C@@H](c2ccc(F)c(F)c2OC2CC(=NO)C2)[C@H](C(=O)Nc2ccnc(C(N)=O)c2)O[C@@]1(C)C(F)(F)F (stereo partly drawn) [Compound 192, 4-((2R,3S,4S,5R)-3-(3,4-difluoro-2-(3-(hydroxyimino)cyclobutoxy)phenyl)-4,5-dimethyl-5-(trifluoromethyl)tetrahydrofuran-2-carboxamido)picolinamide] | < 10
COc1c([C@H]2[C@H](C(=O)Nc3ccnc(C(N)=O)c3)O[C@@](C)(C(F)(F)F)[C@H]2C)ccc(OC2CC(F)(F)C2)c1F [Compound 207, 4-((2R,3S,4S,5R)-3-(4-(3,3-difluorocyclobutoxy)-3-fluoro-2-methoxyphenyl)-4,5-dimethyl-5-(trifluoromethyl)tetrahydrofuran-2-carboxamido) picolinamide] | < 10
